Laboratory results: PubChem BioAssay AID330 (DTP/NCI, 2004)
Values joined by “and” are separate entries in the source; they are usually repeats but may differ in a detail not shown here. Identical values can stand only once. Toxic doses and inconclusive results are not listed. Peptide text beside a SMILES is read from it.

Test system: P388 leukemia ip, CD2F1 mice, survival T/C
Experiment: NCI In Vivo Anticancer Drug Screen. Data for tumor model P388 Leukemia (intraperitoneal) in CD2F1 (CDF1) mice
Details: endpoint: median survival time, higher = longer survival
In short: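 Mice carrying the transplanted tumor received test compound or vehicle. Survival was recorded in each group, and the value is the treated-group measurement divided by that of the vehicle-treated control group.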

[1] = dose: 100.0 mg/kg/injection, schedule: Q01DX009 (ip), vehicle: Klucel (hydroxypropylcellulose) (HPC)
[2] = dose: 30.0 mg/kg/injection, schedule: Q01DX005 (ip), vehicle: saline with Tween-80
[3] = dose: 60.0 mg/kg/injection, schedule: Q01DX005 (ip), vehicle: saline with Tween-80
[4] = dose: 50.0 mg/kg/injection, schedule: Q01DX005 (ip), vehicle: saline with Tween-80
[5] = dose: 50.0 mg/kg/injection, schedule: Q01DX009 (ip), vehicle: saline with Tween-80
[6] = dose: 100.0 mg/kg/injection, schedule: Q01DX009 (ip), vehicle: saline with Tween-80
[7] = dose: 200.0 mg/kg/injection, schedule: Q01DX009 (ip), vehicle: saline with Tween-80
[8] = dose: 50.0 mg/kg/injection, schedule: Q01DX005 (ip), vehicle: Klucel (hydroxypropylcellulose) (HPC)
[9] = dose: 100.0 mg/kg/injection, schedule: Q01DX005 (ip), vehicle: Klucel (hydroxypropylcellulose) (HPC)
[10] = dose: 200.0 mg/kg/injection, schedule: Q01DX005 (ip), vehicle: Klucel (hydroxypropylcellulose) (HPC)
[11] = dose: 120.0 mg/kg/injection, schedule: Q01DX005 (ip), vehicle: saline with Tween-80
[12] = dose: 12.5 mg/kg/injection, schedule: Q01DX005 (ip), vehicle: Klucel (hydroxypropylcellulose) (HPC)
[13] = dose: 25.0 mg/kg/injection, schedule: Q01DX005 (ip), vehicle: Klucel (hydroxypropylcellulose) (HPC)

`C/C=C(/C)C(=O)OC/C(=C/C)C(=O)OC1C=CC(C)(C)C(C=O)=C1C` (configuration not stated) was tested, and the T/C (dose: 12.5 mg/kg/injection, schedule: Q01DX009 (ip), vehicle: Klucel (hydroxypropylcellulose) (HPC)) was 93 % of control, the T/C (dose: 25.0 mg/kg/injection, schedule: Q01DX009 (ip), vehicle: Klucel (hydroxypropylcellulose) (HPC)) was 93 % of control and the T/C [1] was 93 % of control.
For `Fc1ccccc1CN1COc2c(cc(Cl)c3cccnc23)C1`, the T/C (dose: 100.0 mg/kg/injection, schedule: Q04DX003 (ip), vehicle: Klucel (hydroxypropylcellulose) (HPC)) was 93 % of control, the T/C (dose: 200.0 mg/kg/injection, schedule: Q04DX003 (ip), vehicle: Klucel (hydroxypropylcellulose) (HPC)) was 100 % of control and the T/C (dose: 400.0 mg/kg/injection, schedule: Q04DX003 (ip), vehicle: Klucel (hydroxypropylcellulose) (HPC)) was 97 % of control.
`COc1cc(C2CC(C)(O)Oc3cc4c(cc32)OCO4)cc(OC)c1OC` (configuration not stated) was tested, and the T/C [2] was 104 % of control and the T/C [3] was 105 % of control and 108 % of control.
With `CCOC(=O)c1ccc(NC(=O)Nc2nncs2)cc1` the T/C (dose: 6.25 mg/kg/injection, schedule: Q01DX009 (ip), vehicle: distilled water + Tween-80) was 114 % of control and the T/C (dose: 12.5 mg/kg/injection, schedule: Q01DX009 (ip), vehicle: distilled water + Tween-80) was 119 % of control.
With `Cc1cc(C)c(-c2c(Br)c(OC(=O)CO[C@@H]3C[C@H](C)CC[C@H]3C(C)C)c(-c3c(C)cc(C)c(Br)c3C)c(Br)c2OC(=O)CO[C@@H]2C[C@H](C)CC[C@H]2C(C)C)c(C)c1Br` the T/C [4] was 107 % of control, the T/C (dose: 100.0 mg/kg/injection, schedule: Q01DX005 (ip), vehicle: saline with Tween-80) was 100 % of control and the T/C (dose: 200.0 mg/kg/injection, schedule: Q01DX005 (ip), vehicle: saline with Tween-80) was 88 % of control.
With `Oc1[nH]c(N=C2N=c3ccccc3=N2)c2ccccc12` the T/C [5] was 118 % of control, the T/C [6] was 103 % of control and the T/C [7] was 104 % of control.
With `O=C1CCCCCCCCCCCCCCO1` the T/C (dose: 50.0 mg/kg/injection, schedule: Q01DX009 (ip), vehicle: Klucel (hydroxypropylcellulose) (HPC)) was 97 % of control, the T/C [1] was 106 % of control and the T/C (dose: 200.0 mg/kg/injection, schedule: Q01DX009 (ip), vehicle: Klucel (hydroxypropylcellulose) (HPC)) was 102 % of control. The T/C (dose: 400.0 mg/kg/injection, schedule: Q01DX009 (ip), vehicle: Klucel (hydroxypropylcellulose) (HPC)) was 106 % of control.
In the case of `CCc1c(C#N)c(N)c2c(N)c(C(=O)c3ccccc3)sc2c1C`, the T/C [8] is reported as 89 % of control, the T/C [9] is reported as 101 % of control and the T/C [10] is reported as 95 % of control.
In the case of `CSc1c(N(C)C)c(=O)c1=S`, the T/C (dose: 15.0 mg/kg/injection, schedule: Q01DX005 (ip), vehicle: saline with Tween-80) is reported as 99 % of control, the T/C [2] is reported as 108 % of control and the T/C [3] is reported as 107 % of control.
With `CN(C)CCCC1(O)c2ccccc2Sc2cc(Cl)ccc21` (configuration not stated) the T/C [3] was 100 % of control and the T/C [11] was 96 % of control.
With `CN(C)c1cc[n+](-c2c([O-])c3ccccc3n(-c3ccccc3)c2=O)cc1` the T/C [8] was 107 % of control, the T/C [9] was 104 % of control and the T/C [10] was 97 % of control.
For `CCS(=O)(=O)[O][Sn]([CH2]C)([CH2]C)[O]S(=O)(=O)CC`, the T/C (dose: 1.56 mg/kg/injection, schedule: Q04DX003 (ip), vehicle: saline) was 107 % of control, the T/C (dose: 3.12 mg/kg/injection, schedule: Q04DX003 (ip), vehicle: saline) was 110 % of control and the T/C (dose: 6.25 mg/kg/injection, schedule: Q04DX003 (ip), vehicle: saline) was 116 % of control and 121 % of control.
With `COC(=O)C(O)C1OC(COCc2ccccc2)C(OCc2ccccc2)C1OCc1ccccc1` (configuration not stated) the T/C (dose: 12.5 mg/kg/injection, schedule: Q01DX009 (ip), vehicle: distilled water + alcohol) was 100 % of control, the T/C (dose: 25.0 mg/kg/injection, schedule: Q01DX009 (ip), vehicle: distilled water + alcohol) was 100 % of control and the T/C (dose: 50.0 mg/kg/injection, schedule: Q01DX009 (ip), vehicle: distilled water + alcohol) was 103 % of control. The T/C (dose: 100.0 mg/kg/injection, schedule: Q01DX009 (ip), vehicle: distilled water + alcohol) was 100 % of control and the T/C (dose: 200.0 mg/kg/injection, schedule: Q01DX009 (ip), vehicle: distilled water + alcohol) was 112 % of control.
`Cc1ccccc1OCC1COCN(C(C)(C)C)CO1` (configuration not stated) was tested, and the T/C [3] was 100 % of control, the T/C [11] was 107 % of control and the T/C (dose: 240.0 mg/kg/injection, schedule: Q01DX005 (ip), vehicle: saline with Tween-80) was 102 % of control.
With `COc1ccc2c(c1)N(CCC1CCCCN1C)c1ccccc1S2` (configuration not stated) the T/C (dose: 12.5 mg/kg/injection, schedule: Q04DX003 (ip), vehicle: saline) was 116 % of control, the T/C (dose: 25.0 mg/kg/injection, schedule: Q04DX003 (ip), vehicle: saline) was 115 % of control and the T/C (dose: 50.0 mg/kg/injection, schedule: Q04DX003 (ip), vehicle: saline) was 119 % of control.
In the case of `CC(=O)NC(C)CC1=CC(=O)C(C)=CC1=O` (configuration not stated), the T/C (dose: 25.0 mg/kg/injection, schedule: Q01DX001 (ip), vehicle: Klucel (hydroxypropylcellulose) (HPC)) is reported as 95 % of control.
In the case of `CC(=O)OC1CC(C)OC(OC2CCC3(C=O)C4C(O)C(=O)[C@]5(C)C(c6ccc(=O)oc6)CC[C@]5(O)C4CC[C@]3(O)C2)C1OC(C)=O` (some centres not stated), the T/C (dose: 0.18 mg/kg/injection, schedule: Q01DX009 (ip), vehicle: distilled water + Tween-80 + alcohol) is reported as 90 % of control, the T/C (dose: 0.35 mg/kg/injection, schedule: Q01DX009 (ip), vehicle: distilled water + Tween-80 + alcohol) is reported as 107 % of control and the T/C (dose: 0.71 mg/kg/injection, schedule: Q01DX009 (ip), vehicle: distilled water + Tween-80 + alcohol) is reported as 100 % of control. The T/C (dose: 1.42 mg/kg/injection, schedule: Q01DX009 (ip), vehicle: distilled water + Tween-80 + alcohol) was 109 % of control and the T/C (dose: 2.84 mg/kg/injection, schedule: Q01DX009 (ip), vehicle: distilled water + Tween-80 + alcohol) was 100 % of control.
In the case of `CNCC1c2ccccc2CSc2c(OC)cccc21` (configuration not stated), the T/C (dose: 6.25 mg/kg/injection, schedule: Q01DX005 (ip), vehicle: Klucel (hydroxypropylcellulose) (HPC)) is reported as 101 % of control, the T/C [12] is reported as 98 % of control and the T/C [13] is reported as 98 % of control.
With `NC(CC(=O)O)C(=O)NC(CC(=O)O)C(=O)O` (stereo not drawn) (H-Asp-Asp-OH; configuration not given here) the T/C (dose: 50.0 mg/kg/injection, schedule: Q01DX005 (ip), vehicle: saline) was 101 % of control, the T/C (dose: 100.0 mg/kg/injection, schedule: Q01DX005 (ip), vehicle: saline) was 99 % of control and the T/C (dose: 200.0 mg/kg/injection, schedule: Q01DX005 (ip), vehicle: saline) was 97 % of control.
With `COc1cc(CC2C(=O)OCC2C(=O)c2ccc3c(c2)OCO3)cc(OC)c1OC` (configuration not stated) the T/C [12] was 102 % of control, the T/C [13] was 102 % of control and the T/C [8] was 91 % of control and 93 % of control. For the same compound, the T/C [9] was 98 % of control and the T/C [10] was 98 % of control.
In the case of `[S-]c1n[n+](-c2ccccc2)c(-c2ccccc2)s1`, the T/C [5] is reported as 100 % of control, the T/C [6] is reported as 100 % of control and the T/C [7] is reported as 93 % of control.
In the case of `Cn1cc(NC(=O)c2cc(NC(=O)c3cc(NC=O)cn3C)cn2C)cc1C(=O)O`, the T/C [12] is reported as 100 % of control, the T/C [13] is reported as 100 % of control and the T/C [8] is reported as 107 % of control.
With `CCCCCCCCCCCCCC[n+]1ccc(C(N)=O)cc1` the T/C (dose: 6.25 mg/kg/injection, schedule: Q01DX009 (ip), vehicle: saline with Tween-80) was 113 % of control, the T/C (dose: 12.5 mg/kg/injection, schedule: Q01DX009 (ip), vehicle: saline with Tween-80) was 109 % of control and the T/C (dose: 25.0 mg/kg/injection, schedule: Q01DX009 (ip), vehicle: saline with Tween-80) was 100 % of control.
In the case of `Cc1ccccc1C1N(Cc2ccccc2)C(=S)C1(C(C)C)C(C)(C)C` (configuration not stated), the T/C (dose: 100.0 mg/kg/injection, schedule: Q01DX001 (ip), vehicle: saline with Tween-80) is reported as 102 % of control, the T/C (dose: 200.0 mg/kg/injection, schedule: Q01DX001 (ip), vehicle: saline with Tween-80) is reported as 92 % of control and the T/C (dose: 400.0 mg/kg/injection, schedule: Q01DX001 (ip), vehicle: saline with Tween-80) is reported as 94 % of control.
With `CC(NNC(=S)N(C)C1CCCCC1)c1cc2ccccc2cn1` (configuration not stated) the T/C (dose: 6.25 mg/kg/injection, schedule: Q01DX005 (ip), vehicle: saline with Tween-80) was 107 % of control, the T/C (dose: 12.5 mg/kg/injection, schedule: Q01DX005 (ip), vehicle: saline with Tween-80) was 120 % of control and the T/C [4] was 151 % of control and 159 % of control.
